Results from PMC9611726, “Synthesis, Characterization and Biological Investigation of New N-Modified Spinorphin Analogs” (Pharmaceuticals, 2022).
Where a SMILES comes first, the peptide text is derived from it. [ ]: non-standard residue; d: D form. The star is where a group is joined. X1 = CCN(CC)c1ccc2c(c1)Oc1cc(N(CC)CC)ccc1C2c1ccccc1C(=O)*; Ac6c = NC1(C(=O)O)CCCCC1; Ac5c = NC1(C(=O)O)CCCC1

What was measured:
[1] = Partition coefficient, shake-flask method, 1-octanol/phosphate buffer; format: physicochemical; details: shake-flask 1-octanol/phosphate buffer (NaH2PO4/Na2HPO4), pH 7.41 ± 0.01, 25 °C, system stirred 12 h, absorbance and emission read-out, standard additions
Source text: The effectiveness of biomolecules is mainly due to specific structural and physicochemical properties. In principle, the properties of peptides/proteins are very diverse and directly related to their bioactivity. […] With the manifestation of hydrophilic properties, the occurrence of a hydration process is possible; swelling, increasing their mass and volume, while it is possible to partially limit the solubility of the molecule, in which case the peptide molecule becomes more unstable. At the isoelectric point, peptides have the least ability to bind water, i.e., to hydrate; the hydration shell around the peptide molecules breaks down so that they combine to form, for example, aggregates. When the pH of the medium changes, the peptide macromolecule is charged, and its hydration capacity changes. […] Due to the obtained values, the studied compounds can be arranged in the following sequence from hydrophilic to hydrophobic (lipophilic): Rh-S > Rh-S5 > Rh-S6. This corresponds to the data from the morphology of the compound, where an analogous order of increasing porosity/hydrophilicity was found (Figure 3). It can be seen that the replacement of natural proline with unnatural steric restricted amino acids such as 1-aminocyclopentanecarboxylic acid (Ac5c) and 1-aminocyclohexanecarboxylic acid (Ac6c) (neuropeptides Rh-S5 and Rh-S6) leads to an increase in lipophilicity, which would assist passage through the brain barrier and increase the efficiency of the molecule. […]
The partition coefficients of the spinorphin-rhodamine derivatives were determined in a 1-octanol/phosphate buffer system (NaH2PO4/Na2HPO4, pH 7.41 ± 0.01). […] After separation, the absorbance and emission of the solutions of the two phases were measured and the amount of dissolved analyte was determined by the method of standard additions. […] The partition coefficient was calculated by the following equation: P = C^oct/buf/C^buf/oct, where C^oct/buf and C^buf/oct are the molar concentrations of the solute in the mutually saturated phases of 1-octanol and buffer.

[2] = Acid-base constants (pKa) and isoelectric point (pI) by fluorimetry, confirmed by UV-Vis; format: physicochemical; details: for pKa2 / pKa1: fluorimetric, inflection of I/pH curve, confirmed by UV-Vis, average values from repeatable results; for pKa2: pH 1 to 12, rhodamine part (λex 560 nm); for pKa1: pH 1 to 12, tryptophan emission (λex 275 nm); for pI: isoelectric point calculated from the protolytic constants
Protocol: When studying the fluorescence properties, the emission spectra were recorded upon excitation at two wavelengths: λ^ex = 275 nm where tryptophan/tyrosine fluoresces, and at λ^ex = 560 nm where excitation of the rhodamine moiety is possible (Figure 5 and Figure 6). […] With both amino acids present in the indicated complex mixture, the fluorescence in the 300–400 nm range is more likely to originate from the indole group of the tryptophan residue, which is known to emit at ~350 nm at an excitation wavelength of 280 nm. Moreover, spectra were recorded at different pHs of the medium to determine the study compounds’ acid constants and isoelectric points. All compounds show similar behavior of fluorescence properties with minimal difference in wavelength where the compound absorbs in the visible region (1–2 nm). A strong decrease in the intensity of the emission maximum at λ^em = 585 nm is observed with an increase in the pH of the medium, which is due to the structural changes associated with the closure of the spirolactam ring at rhodamine. pH also affects the fluorescence emission intensity of the tryptophan/tyrosine spectral line. […] The obtained emission spectra at different pHs helped us to determine the acidity constants of the obtained compounds. pK values were obtained by selecting the inflection points of the I/pH curve at two wavelengths: 275 nm, where tryptophan emits, and 575 nm for the rhodamine part, respectively (Figure 5 and Figure 6, inserted graphs). At these points the concentrations of conjugated acid and base are equal, i.e., [HRh-S] = [Rh-S-], and according to the known relationship […] at this point pKa = рН. Equations (1) and (2) given in the experimental part were also used to calculate the acid constants to confirm the values. […] The proven higher values of the constants given in [24] are due to the influence of the –OH group of tyrosine, located near the spirolactam ring of rhodamine and leading to its more effortless opening. […] Based on the obtained values of the protolytic constants, the isoelectric points were calculated where the compounds would show zero charge and reduced solubility (Table 1). […] Stokes shift, showing the differences between the structure of the fluorophore in the ground S0 state and in the first excited state S1, was also determined as an essential feature for the rhodamine peptide derivatives (Figure 5, Table 2). The Stokes shift for all compounds at the rhodamine moiety is ~859 cm^−1, which is consistent with the rhodamine derivatives known in the literature.
Acid base constants and isoelectric points were determined fluorimetrically and confirmed by UV–Vis analyses. Absorption and emission spectra were recorded on a series of solutions with the same concentration of the peptide derivatives at different pHs (from 1 to 12). The assay data (intensity/absorbance versus pH) were processed with Origin8Pro mathematical software. The pK value were determined using the following equations:log [(Amax − A)/(A − Amin)] = pH − pKa(1) log [(IF max − IF)/(IF − IF min)] = pH – pKa(2) where the minimum (Amin) and the maximum (Amax) absorbances are at 275 nm and 557 nm, respectively, A is the absorbance at the given pH value; Fmax and Fmin are the maximum and minimum fluorescence emission intensity at 356 and 585 nm, respectively, F is the fluorescence intensity at the given pH value.

Structure (SMILES)	logD [1]	pKa2 [2]	pKa1 [2]	pI [2]
CCN(CC)c1ccc2c(c1)Oc1cc(N(CC)CC)ccc1C2c1ccccc1C(=O)N[C@@H](CC(C)C)C(=O)N[C@H](C(=O)N[C@H](C(=O)N[C@@H](Cc1ccc(O)cc1)C(=O)NC1(C(=O)N[C@@H](Cc2c[nH]c3ccccc23)C(=O)N[C@H](C(N)=O)[C@@H](C)O)CCCC1)C(C)C)C(C)C [Rh-S5, rhodamineB-Leu-Val-Val-Tyr-Ac5c-Trp-Thr-NH2] (X1-LVVY[Ac5c]WT-NH2)	-0.168	5.36	5.11	5.23
CCN(CC)c1ccc2c(c1)Oc1cc(N(CC)CC)ccc1C2c1ccccc1C(=O)N[C@@H](CC(C)C)C(=O)N[C@H](C(=O)N[C@H](C(=O)N[C@@H](Cc1ccc(O)cc1)C(=O)NC1(C(=O)N[C@@H](Cc2c[nH]c3ccccc23)C(=O)N[C@H](C(N)=O)[C@@H](C)O)CCCCC1)C(C)C)C(C)C [Rh-S6, rhodamineB-Leu-Val-Val-Tyr-Ac6c-Trp-Thr-NH2] (X1-LVVY[Ac6c]WT-NH2)	-0.197	4.94	6.35	5.65
CCN(CC)c1ccc2c(c1)Oc1cc(N(CC)CC)ccc1C2c1ccccc1C(=O)N[C@@H](CC(C)C)C(=O)N[C@H](C(=O)N[C@H](C(=O)N[C@@H](Cc1ccc(O)cc1)C(=O)N1CCC[C@H]1C(=O)N[C@@H](Cc1c[nH]c2ccccc12)C(=O)N[C@H](C(N)=O)[C@@H](C)O)C(C)C)C(C)C [Rh-S, rhodamineB-Leu-Val-Val-Tyr-Pro-Trp-Thr-NH2] (X1-LVVYPWT-NH2)	0.54	4.56	7.09	5.82
